Where a SMILES comes first, the peptide text is derived from it. The star is where a group is joined. Methylprednisolone(17-OCOEt) = CCC(=O)O[C@]1(C(=O)CO*)CC[C@H]2[C@@H]3C[C@H](C)C4=CC(=O)C=C[C@]4(C)[C@H]3[C@@H](O)C[C@@]21C; X1 = C[C@H]1C[C@@H]2[C@H]([C@@H](O)C[C@@]3(C)[C@H]2CC[C@]3(O)C(=O)CO*)[C@@]2(C)C=CC(=O)C=C12; X5 = C[C@]12CCC(=O)C=C1CC[C@@H]1[C@@H]2[C@@H](O)C[C@@]2(C)[C@H]1CC[C@]2(O)C(=O)CO*; Fmoc = O=C(OCC1c2ccccc2-c2ccccc21)*; MeOSuc = COC(=O)CCC(=O)*; Boc = CC(C)(C)OC(=O)*; CH2Cl = ClC*
What was measured:
[1] = tested on: Esterases of Rat Skin; test: Cleavage in the Homogenate of Normal Rat Skin (unspecific cleavage by esterases of rat skin); type: in vitro ADME; settings: percent of hydrolysis rate of 6α-methylprednisolone-17-propionate-21-acetate; approximately 100 μmol/l, pH=7.4, 37° C.
Protocol: (§1) The homogenate of the skin of male rats (0.1 mol/l of phosphate buffer, pH=7.4) is centrifuged for 20 minutes at 10,000 g. The supernatant is adjusted in phosphate buffer to a protein concentration of 3 mg/ml. The test substances in 20 μl of ethanol are added to 1 ml of this homogenate. The final concentration of the corticoid derivatives is approximately 100 μmol/l. The incubation takes place for different periods at 37° C. At the end of incubation, the samples are extracted three times with 3 ml of chloroform. The combined extracts are evaporated to dryness under nitrogen and taken up with 100 μl of ethanol. The ethanolic solutions are mixed with the same volume of water and the saponification products are separated by HPLC (RP 18, acetonitrile/water-gradient, detection 240 nm). The relative hydrolysis rate is indicated in percent of the hydrolysis rate of the 6α-methylprednisolone-17-propionate-21-acetate.

[2] = biological target: T1, Leukocyte Elastase (Homo sapiens, UniProt P08246); test: Cleavage of Glucocorticoid-21-Oligopeptide Esters by Leukocyte Elastase in the lysate of human neutrophilic granulocytes; type: biochemical; settings: for Relative Hydrolysis Rate [%]: lysate of human neutrophilic granulocytes, 10^6 cells per ml, 1 hour at 37° C., Fmoc-Ala-Ala-Pro-Val-O-MPP is used as reference
T1 construct: also pure human sputum elastase (Elastin Products)
T1 sequence (P08246 30-267): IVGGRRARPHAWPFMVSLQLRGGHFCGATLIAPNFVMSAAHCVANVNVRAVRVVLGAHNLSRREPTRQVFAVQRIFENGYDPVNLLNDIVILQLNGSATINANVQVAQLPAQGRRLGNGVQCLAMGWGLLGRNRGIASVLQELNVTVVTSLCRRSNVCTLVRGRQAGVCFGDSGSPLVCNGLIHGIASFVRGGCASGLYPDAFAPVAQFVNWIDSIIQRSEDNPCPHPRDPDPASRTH
Protocol: as §1
Polymorphonuclear granulocytes are isolated from donor blood. The cells are lysed in a density of 10^6 cells per ml. 1 ml each of the lysate is mixed with 20 μl of ethanolic corticoid solution (5 mmol/l) After 1 hour of incubation at 37° C., the samples are extracted three times with 3 ml of chloroform and worked up as described above for HPLC analysis. The cleavage of the prodrugs according to the invention can be inhibited under these test conditions by the addition of the specific elastase inhibitor MeO-succinyl-Ala-Ala-Pro-Val-chloromethylketone to 90%. Furthermore, the compounds are also hydrolyzed by pure human sputum-elastase (elastin products).

[3] = tested on: rat ear; test: Local antiinflammatory action: modified rat ear test according to Tonelli (croton oil); type: in vivo; settings: topical, * = significant (p < 0.05); for Edema [% inhibition]: ear weight, 16 hours after irritant; for Infiltration [% inhibition]: granulocytic infiltrate (myeloperoxidase and leukocyte-elastase), 16 hours
Protocol: The antiinflammatory activity of the corticoid-21-oligopeptide esters is performed in a modified rat ear test according to Tonelli. The modifications are based on changes of irritant solution (4% croton oil, 10% DMSO in ethanol), the type of administration (application of the solution with pipette) and the evaluation of the test 16 hours after administration of the irritant solution. At this time, both the inhibition of the edema by measuring the ear weight and the inhibition of the granulocytic infiltrate by measuring the granulocyte marker myeloperoxidase and leukocyte-elastase in the ear homogenate can be determined. The group size was 6 animals in each case.

[4] = biological target: T2, rat glucocorticoid receptor (Rattus norvegicus, UniProt P06536); test: Binding to the Glucocorticoid Receptor: competitive displacement of tritiated dexamethasone in rat thymus cytosol; settings: quotient of concentrations of test substance and dexamethasone displacing 50% of labeled dexamethasone; 2 hours at 4° C.; lower KF = better binding
T2 sequence (P06536 1-795): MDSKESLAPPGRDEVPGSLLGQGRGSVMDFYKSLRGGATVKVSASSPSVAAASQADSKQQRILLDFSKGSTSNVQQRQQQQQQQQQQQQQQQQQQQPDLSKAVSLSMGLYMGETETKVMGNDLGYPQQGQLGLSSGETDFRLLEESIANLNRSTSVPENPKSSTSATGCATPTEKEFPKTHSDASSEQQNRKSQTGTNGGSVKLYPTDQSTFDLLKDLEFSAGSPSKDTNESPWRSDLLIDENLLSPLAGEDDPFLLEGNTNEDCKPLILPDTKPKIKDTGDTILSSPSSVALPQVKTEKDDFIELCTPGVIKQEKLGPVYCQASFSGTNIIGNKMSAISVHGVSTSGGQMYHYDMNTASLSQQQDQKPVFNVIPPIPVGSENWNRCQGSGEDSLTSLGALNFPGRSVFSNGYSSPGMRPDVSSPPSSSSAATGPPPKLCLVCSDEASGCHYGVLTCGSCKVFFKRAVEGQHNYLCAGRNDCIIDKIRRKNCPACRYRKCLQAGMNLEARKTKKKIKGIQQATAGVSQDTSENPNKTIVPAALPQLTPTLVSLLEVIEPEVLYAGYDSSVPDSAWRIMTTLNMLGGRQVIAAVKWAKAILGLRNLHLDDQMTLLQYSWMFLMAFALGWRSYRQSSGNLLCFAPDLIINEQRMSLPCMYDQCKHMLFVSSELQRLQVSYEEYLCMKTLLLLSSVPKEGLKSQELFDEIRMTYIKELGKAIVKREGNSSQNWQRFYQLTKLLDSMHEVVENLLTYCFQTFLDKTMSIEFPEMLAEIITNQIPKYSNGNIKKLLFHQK
Protocol: The binding of the substances according to the invention to the rat glucocorticoid receptor is determined by competitive displacement of tritiated dexamethasone from the receptor binding. Different concentrations of the glucocorticoid esters are incubated for 2 hours at 4° C. in the presence of a constant concentration of tritium-labeled dexamethasone with rat thymus cytosol. After the incubation time, the non-protein-bound steroids are adsorbed on activated carbon and the activated carbon is centrifuged off. The radioactivity in the supernatant is used as a measurement for the amount of receptor-bound dexamethasone.
From the measurements, the concentrations of the respective corticoid derivative are calculated, which are necessary to displace 50% of the labeled dexamethasone from the receptor binding. Competition factor (KF) is the quotient of these calculated concentrations for the test substance and that of dexamethasone.

[5] = concentration 0.003 (unit not given)
[6] = concentration 0.03 (unit not given)
[7] = concentration 0.3 (unit not given)

Question: What does the source list for `CCC(=O)O[C@]1(C(=O)COC(=O)[C@@H](NC(=O)[C@@H]2CCCN2C(=O)[C@H](C)NC(=O)[C@H](C)NC(=O)OC(C)(C)C)C(C)C)CC[C@H]2[C@@H]3C[C@H](C)C4=CC(=O)C=C[C@]4(C)[C@H]3[C@@H](O)C[C@@]21C` [Example 3, N-(N-(N-(N-(1,1-Dimethylethoxycarbonyl)-L-alanyl)-L-alanyl)-L -prolyl)-L-valine [11β,21-dihydroxy-3,20-dioxo-6α-methyl-17-propionyloxy-pregna-1,4-dien-21-yl] ester] (Boc-AAPV-{Methylprednisolone(17-OCOEt)})?
Answer: Relative Hydrolysis Rate [%] [1]: 50%; Relative Hydrolysis Rate [%] [2]: 160-190%; Edema [% inhibition] [3, 5]: 17%; Infiltration [% inhibition] [3, 5]: 11%; Edema [% inhibition] [3, 6]: 51%; Infiltration [% inhibition] [3, 6]: 43%; Edema [% inhibition] [3, 7]: 81%; Infiltration [% inhibition] [3, 7]: 77%

Question: How did the “Relative Hydrolysis Rate [%]” value [1] turn out when `CCC(=O)O[C@]1(C(=O)COC(=O)[C@@H](NC(=O)[C@@H]2CCCN2C(=O)[C@H](C)NC(=O)[C@H](C)NC(=O)OCC2c3ccccc3-c3ccccc32)C(C)C)CC[C@H]2[C@@H]3C[C@H](C)C4=CC(=O)C=C[C@]4(C)[C@H]3[C@@H](O)C[C@@]21C` [Example 4, N-(N-(N-(N-(9H-Fluoren-9-ylmethoxycarbonyl)-L-alanyl)-L-alanyl) -L-prolyl)-L-valine [11β,21-dihydroxy-3,20-dioxo-6α-methyl-17-propionyloxy-pregna-1,4-dien-21-yl] ester] (Fmoc-AAPV-{Methylprednisolone(17-OCOEt)}) was run?
Answer: 4%

Question: What about the “Relative Hydrolysis Rate [%]” value [2] of the same compound?
Answer: 100%

Question: And the “Edema [% inhibition]” value [3, 5]?
Answer: 30%

Question: What about the “Infiltration [% inhibition]” value [3, 5] of the same compound?
Answer: 16%

Question: And the “Edema [% inhibition]” value [3, 6]?
Answer: 48%

Question: What about the “Infiltration [% inhibition]” value [3, 6] of the same compound?
Answer: 42%

Question: What about the “Edema [% inhibition]” value [3, 7] of the same compound?
Answer: 78%

Question: What about the “Infiltration [% inhibition]” value [3, 7] of the same compound?
Answer: 66%

Question: What does the source list for `CC(C)[C@H](NC(=O)[C@@H]1CCCN1C(=O)[C@H](C)NC(=O)[C@H](C)NC(=O)OCC1c2ccccc2-c2ccccc21)C(=O)OCC(=O)[C@@]1(O)CC[C@H]2[C@@H]3C[C@H](C)C4=CC(=O)C=C[C@]4(C)[C@H]3[C@@H](O)C[C@@]21C` [Example 22] (Fmoc-AAPV-X1)?
Answer: Relative Hydrolysis Rate [%] [1]: 6%; Relative Hydrolysis Rate [%] [2]: 370%

Question: For `CC(C)[C@H](NC(=O)[C@@H]1CCCN1C(=O)[C@H](C)NC(=O)[C@H](C)NC(=O)OCC1c2ccccc2-c2ccccc21)C(=O)OCC(=O)[C@@]1(O)CC[C@H]2[C@@H]3CCC4=CC(=O)CC[C@]4(C)[C@H]3[C@@H](O)C[C@@]21C` [Example 29, N-(N-(N-(N-(9H-Fluoren-9-yl-methoxycarbonyl)-L-alanyl)-L-alanyl) -L-prolyl)-L-valine [11β,17,21-trihydroxy-3,20-dioxo-pregn-4-en-21-yl] ester] (Fmoc-AAPV-X5), which “Competition Factor [KF]” value [4] is on record?
Answer: k.k. [n.c.]

Question: For `CCCCC(=O)O[C@]1(C(=O)COC(=O)[C@@H](NC(=O)[C@@H]2CCCN2C(=O)[C@H](C)NC(=O)[C@H](C)NC(=O)OCC2c3ccccc3-c3ccccc32)C(C)C)[C@@H](C)C[C@H]2[C@@H]3CCC4=CC(=O)C=C[C@]4(C)[C@@]3(F)[C@@H](O)C[C@@]21C` [Example 39, N-(N-(N-(N-(9H-Fluoren-9-yl-methoxycarbonyl)-L-alanyl)-L-alanyl) -L-prolyl)-L-valine [9α-fluoro-11β,21-dihydroxy-16β-methyl-3,20-dioxo-17-valeroyloxy-pregna-1,4-dien-21-yl] ester], which “Relative Hydrolysis Rate [%]” value [1] is on record?
Answer: 0%

Question: And the “Relative Hydrolysis Rate [%]” value [2]?
Answer: 42%

Question: With `COC(=O)CCC(=O)N[C@@H](C)C(=O)N[C@@H](C)C(=O)N1CCC[C@H]1C(=O)N[C@H](C(=O)CCl)C(C)C` [MeO-succinyl-Ala-Ala-Pro-Val-chloromethylketone, reference compound] (MeOSuc-AAPV-CH2Cl) as the compound, how does the “Inhibition of the cleavage of the prodrugs” value ([2]; addition of the specific elastase inhibitor to granulocyte lysate) read?
Answer: 90%
